Experimental data reported in patent US20100137315A1, “Sphingosine Kinase Inhibitors and Methods of Their Use” (APOGEE BIOTECHNOLOGY CORPORATION, priority 2005, published 2010).

Key:
C57BL/6 mice = experiment: Acute DSS-colitis model of IBD; format: in vivo, mouse; settings: 2% DSS, 50 mg/kg oral daily
Method: FIG. 4. Effects of Compound 8 and Dipentum on the DAI in the acute DSS-colitis model. C57BL/6 mice were treated for 6 days as follows: normal drinking water and daily oral administration of PEG (No DSS), 2% DSS in the drinking water and daily oral administration of PEG (DSS alone); 2% DSS in the drinking water and daily oral administration of 50 mg/kg Compound 8 in PEG (DSS+Compound 8), or 2% DSS in the drinking water and daily oral administration of 50 mg/kg Dipentum in PEG (DSS+Dipentum). On the indicated day, the Disease Activity Index was calculated for each group. Values represent the mean±sd for 5-6 mice per group.
FIG. 5. Effects of Compound 8 and Dipentum on colon length in the acute DSS-colitis model. Mice from the experiment described in FIG. 4 were sacrificed on Day 6, and the colon was harvested from each animal and measured. Data represent the mean±sd colon length.
FIG. 6. Effects of Compound 8 and Dipentum on neutrophil infiltration into the colon in the acute DSS-colitis model. Myeloperoxidase (MPO) activity from the colons of the animals described in FIG. 4 was measured. Values the mean±sd MPO activity in units per gram of tissue.
FIG. 7. Effects of Compound 8 and Dipentum on colonic cytokine levels in the acute DSS-colitis model. Colon samples from mice described in FIG. 4 were extracted and assayed for the levels of the indicated cytokines Values represent the mean±sd amount of each cytokine in 4-5 samples per group.
Experiments were conducted with SK inhibitors using the dextran sulfate sodium (DSS) model of IBD. In these experiments, male C57BL/6 mice were provided with standard rodent diet and water ad libitum. After their acclimation, the animals were randomly divided into groups of 5 or 6 for DSS (40,000 MW from ICN Biomedicals, Inc., Aurora, Ohio)— and drug-treatment. […] The body weight of each animal was measured each day, and the Disease Activity Index (DAI) was scored for each animal on Days 4-6. On Day 6, the animals were sacrificed by cervical dislocation and the entire colon was removed and measured to the nearest 0.1 cm.

Abl = Abl (Homo sapiens, UniProt P00519); experiment: Kinase selectivity panel; format: biochemical; settings: read-out: percent of control activity of Abl
Chain of Abl (P00519 whole entry, species assumed, the tested form may be a part): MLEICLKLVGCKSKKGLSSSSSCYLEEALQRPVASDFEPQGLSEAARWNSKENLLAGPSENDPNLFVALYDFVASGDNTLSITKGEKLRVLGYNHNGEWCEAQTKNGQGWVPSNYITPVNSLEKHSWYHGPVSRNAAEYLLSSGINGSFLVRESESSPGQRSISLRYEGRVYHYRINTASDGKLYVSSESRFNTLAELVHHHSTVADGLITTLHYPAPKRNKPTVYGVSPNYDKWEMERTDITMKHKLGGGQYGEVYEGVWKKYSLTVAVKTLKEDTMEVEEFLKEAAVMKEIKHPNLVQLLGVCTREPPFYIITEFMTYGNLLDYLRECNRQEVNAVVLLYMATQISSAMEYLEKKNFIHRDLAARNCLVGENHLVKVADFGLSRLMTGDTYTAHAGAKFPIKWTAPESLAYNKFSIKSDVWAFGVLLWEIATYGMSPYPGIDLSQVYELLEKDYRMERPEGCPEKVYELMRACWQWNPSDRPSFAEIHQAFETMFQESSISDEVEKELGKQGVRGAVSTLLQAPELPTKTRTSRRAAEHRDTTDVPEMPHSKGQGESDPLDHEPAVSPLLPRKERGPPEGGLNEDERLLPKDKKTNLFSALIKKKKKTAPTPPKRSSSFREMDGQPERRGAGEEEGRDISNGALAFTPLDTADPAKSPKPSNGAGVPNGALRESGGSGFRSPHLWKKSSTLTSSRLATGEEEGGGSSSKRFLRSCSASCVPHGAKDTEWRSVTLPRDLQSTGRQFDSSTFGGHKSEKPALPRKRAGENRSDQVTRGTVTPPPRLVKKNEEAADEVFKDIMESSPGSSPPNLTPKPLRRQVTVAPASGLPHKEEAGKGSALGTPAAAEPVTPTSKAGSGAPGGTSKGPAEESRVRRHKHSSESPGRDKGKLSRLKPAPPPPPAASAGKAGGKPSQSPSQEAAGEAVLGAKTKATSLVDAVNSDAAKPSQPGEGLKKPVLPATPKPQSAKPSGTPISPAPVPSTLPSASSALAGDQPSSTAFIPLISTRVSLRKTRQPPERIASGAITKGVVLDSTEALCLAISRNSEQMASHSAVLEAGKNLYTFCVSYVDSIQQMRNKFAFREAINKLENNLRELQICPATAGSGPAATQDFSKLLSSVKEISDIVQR
Method: (§1) A common problem with previous attempts to develop protein kinase inhibitors is the lack of selectivity toward the target kinase since the majority of these compounds interact with nucleotide-binding domains that are highly conserved among kinases. To determine if compound of this invention are non-selective kinase inhibitors, the effects of the SK inhibitor, Compound 73, on a diverse panel of 20 purified kinases was determined. The compound was tested at a single concentration of 50 μM.

CHK1 = CHK1 (Homo sapiens, UniProt O14757); experiment: Kinase selectivity panel; format: biochemical; settings: read-out: percent of control activity of CHK1
Method: as §1

EFGR = EFGR (Homo sapiens, UniProt P00533); experiment: Kinase selectivity panel; format: biochemical; settings: read-out: percent of control activity of EFGR
Chain of EFGR (P00533 25-1210): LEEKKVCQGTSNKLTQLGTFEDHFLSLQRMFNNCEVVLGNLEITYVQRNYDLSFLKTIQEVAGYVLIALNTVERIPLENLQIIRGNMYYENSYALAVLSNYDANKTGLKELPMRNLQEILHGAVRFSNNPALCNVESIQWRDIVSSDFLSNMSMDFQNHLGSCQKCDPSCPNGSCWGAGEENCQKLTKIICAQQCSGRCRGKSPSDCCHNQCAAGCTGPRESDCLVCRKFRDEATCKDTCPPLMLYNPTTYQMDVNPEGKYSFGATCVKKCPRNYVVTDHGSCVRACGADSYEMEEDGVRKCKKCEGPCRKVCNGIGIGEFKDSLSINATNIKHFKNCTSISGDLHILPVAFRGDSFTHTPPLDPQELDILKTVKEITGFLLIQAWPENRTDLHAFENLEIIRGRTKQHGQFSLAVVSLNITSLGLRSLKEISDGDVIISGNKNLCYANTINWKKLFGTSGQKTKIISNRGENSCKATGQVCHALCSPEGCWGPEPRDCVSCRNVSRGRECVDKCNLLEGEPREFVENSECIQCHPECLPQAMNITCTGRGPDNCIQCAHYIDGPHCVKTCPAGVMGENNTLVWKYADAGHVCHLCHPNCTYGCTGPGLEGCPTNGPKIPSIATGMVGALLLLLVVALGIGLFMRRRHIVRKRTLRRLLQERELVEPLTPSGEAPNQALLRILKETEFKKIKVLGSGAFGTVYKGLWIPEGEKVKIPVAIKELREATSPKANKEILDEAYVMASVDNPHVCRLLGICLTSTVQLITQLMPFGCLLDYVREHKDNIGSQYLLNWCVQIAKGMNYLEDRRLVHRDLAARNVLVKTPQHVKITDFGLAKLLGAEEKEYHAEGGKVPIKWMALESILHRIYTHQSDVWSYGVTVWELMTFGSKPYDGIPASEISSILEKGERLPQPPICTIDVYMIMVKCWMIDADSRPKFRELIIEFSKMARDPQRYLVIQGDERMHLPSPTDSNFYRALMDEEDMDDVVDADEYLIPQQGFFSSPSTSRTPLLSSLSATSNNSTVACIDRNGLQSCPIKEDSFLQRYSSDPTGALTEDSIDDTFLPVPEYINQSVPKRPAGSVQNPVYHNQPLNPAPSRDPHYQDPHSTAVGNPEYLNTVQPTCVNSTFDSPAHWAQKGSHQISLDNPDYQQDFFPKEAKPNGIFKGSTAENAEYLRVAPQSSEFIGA
Method: as §1

Fyn = Fyn (Homo sapiens, UniProt P06241); experiment: Kinase selectivity panel; format: biochemical; settings: read-out: percent of control activity of Fyn
Chain of Fyn (P06241 whole entry, species assumed): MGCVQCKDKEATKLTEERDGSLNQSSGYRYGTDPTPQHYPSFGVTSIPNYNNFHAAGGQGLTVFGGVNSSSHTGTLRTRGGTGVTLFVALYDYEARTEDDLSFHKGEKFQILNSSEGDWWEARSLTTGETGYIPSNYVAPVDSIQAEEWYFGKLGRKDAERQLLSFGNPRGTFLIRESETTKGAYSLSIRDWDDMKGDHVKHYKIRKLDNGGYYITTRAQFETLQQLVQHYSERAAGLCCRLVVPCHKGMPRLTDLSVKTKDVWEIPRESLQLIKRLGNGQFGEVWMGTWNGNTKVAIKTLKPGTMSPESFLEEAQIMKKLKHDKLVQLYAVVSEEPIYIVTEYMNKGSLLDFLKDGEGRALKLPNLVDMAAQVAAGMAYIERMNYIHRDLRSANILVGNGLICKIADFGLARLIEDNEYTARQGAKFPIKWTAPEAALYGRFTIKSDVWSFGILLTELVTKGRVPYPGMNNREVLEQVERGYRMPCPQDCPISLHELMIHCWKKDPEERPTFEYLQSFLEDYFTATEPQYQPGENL
Method: as §1

IKKα = IKKα (Homo sapiens, UniProt O15111); experiment: Kinase selectivity panel; format: biochemical; settings: read-out: percent of control activity of IKKα
Chain of IKKα (O15111 whole entry, species assumed): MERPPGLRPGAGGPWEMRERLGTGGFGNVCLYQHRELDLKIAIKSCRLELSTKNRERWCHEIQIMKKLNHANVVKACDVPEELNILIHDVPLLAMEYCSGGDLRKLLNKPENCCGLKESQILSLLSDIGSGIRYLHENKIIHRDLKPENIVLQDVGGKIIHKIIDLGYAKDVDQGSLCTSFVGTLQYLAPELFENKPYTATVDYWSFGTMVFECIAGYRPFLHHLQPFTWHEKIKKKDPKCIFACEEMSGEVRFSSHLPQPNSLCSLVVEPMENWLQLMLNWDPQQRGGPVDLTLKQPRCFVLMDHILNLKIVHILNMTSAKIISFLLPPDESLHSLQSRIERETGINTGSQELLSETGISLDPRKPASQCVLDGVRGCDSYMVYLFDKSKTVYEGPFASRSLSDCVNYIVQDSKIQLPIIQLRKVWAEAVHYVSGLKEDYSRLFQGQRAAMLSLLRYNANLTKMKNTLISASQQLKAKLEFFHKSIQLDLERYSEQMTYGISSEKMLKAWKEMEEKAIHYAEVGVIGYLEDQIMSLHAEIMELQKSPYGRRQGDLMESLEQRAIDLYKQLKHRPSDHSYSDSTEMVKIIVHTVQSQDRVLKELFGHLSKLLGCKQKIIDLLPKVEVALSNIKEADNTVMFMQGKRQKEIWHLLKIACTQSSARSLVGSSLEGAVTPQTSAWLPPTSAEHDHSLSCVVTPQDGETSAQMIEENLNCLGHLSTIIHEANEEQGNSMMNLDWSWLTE
Method: as §1

P38 MAP kinase 2 = P38 MAP kinase 2 (Homo sapiens, UniProt Q15759); experiment: Kinase selectivity panel; format: biochemical; settings: read-out: percent of control activity of P38 MAP kinase 2
Method: as §1

PDK1 = PDK1 (Homo sapiens, UniProt O15530); experiment: Kinase selectivity panel; format: biochemical; settings: read-out: percent of control activity of PDK1
Method: as §1

PKBα = PKBα (Homo sapiens, UniProt P31749); experiment: Kinase selectivity panel; format: biochemical; settings: read-out: percent of control activity of PKBα
Chain of PKBα (P31749 whole entry, species assumed): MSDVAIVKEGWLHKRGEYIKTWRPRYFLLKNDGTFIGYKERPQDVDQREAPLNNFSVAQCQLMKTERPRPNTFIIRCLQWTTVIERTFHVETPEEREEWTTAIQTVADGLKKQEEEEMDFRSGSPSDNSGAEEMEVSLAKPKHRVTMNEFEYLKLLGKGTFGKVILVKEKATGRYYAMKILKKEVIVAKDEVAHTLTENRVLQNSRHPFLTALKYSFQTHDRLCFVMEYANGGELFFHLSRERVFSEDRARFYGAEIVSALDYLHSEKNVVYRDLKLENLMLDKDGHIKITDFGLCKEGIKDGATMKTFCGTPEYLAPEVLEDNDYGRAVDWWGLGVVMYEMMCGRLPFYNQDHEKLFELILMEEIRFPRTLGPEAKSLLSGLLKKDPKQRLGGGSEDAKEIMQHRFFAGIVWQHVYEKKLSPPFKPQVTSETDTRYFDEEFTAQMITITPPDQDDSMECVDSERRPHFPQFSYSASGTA
Method: as §1

Protein kinase C ε = Protein kinase C ε (Homo sapiens, UniProt Q02156); experiment: Kinase selectivity panel; format: biochemical; settings: read-out: percent of control activity of Protein kinase C ε
Chain of Protein kinase C ε (Q02156 whole entry): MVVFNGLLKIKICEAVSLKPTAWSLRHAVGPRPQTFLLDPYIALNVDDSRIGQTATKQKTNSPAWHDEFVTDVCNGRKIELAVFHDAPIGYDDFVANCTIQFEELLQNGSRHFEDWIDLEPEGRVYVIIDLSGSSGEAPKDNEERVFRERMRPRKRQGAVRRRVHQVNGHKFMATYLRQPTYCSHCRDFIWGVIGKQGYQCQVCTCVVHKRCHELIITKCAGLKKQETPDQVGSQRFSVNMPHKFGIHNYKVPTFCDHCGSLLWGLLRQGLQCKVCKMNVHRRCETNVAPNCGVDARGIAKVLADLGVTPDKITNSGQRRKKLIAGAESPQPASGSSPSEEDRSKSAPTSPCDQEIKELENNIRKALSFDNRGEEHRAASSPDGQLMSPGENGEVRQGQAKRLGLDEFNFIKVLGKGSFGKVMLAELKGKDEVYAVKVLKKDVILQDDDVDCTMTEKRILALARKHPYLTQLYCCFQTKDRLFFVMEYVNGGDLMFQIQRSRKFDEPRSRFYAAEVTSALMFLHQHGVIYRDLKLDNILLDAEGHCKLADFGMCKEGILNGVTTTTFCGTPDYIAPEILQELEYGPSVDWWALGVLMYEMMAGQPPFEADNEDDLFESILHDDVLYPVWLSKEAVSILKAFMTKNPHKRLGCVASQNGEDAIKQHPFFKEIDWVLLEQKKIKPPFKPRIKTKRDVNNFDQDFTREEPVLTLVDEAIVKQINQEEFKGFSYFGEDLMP
Method: as §1

cSrc = cSrc (Homo sapiens, UniProt P12931); experiment: Kinase selectivity panel; format: biochemical; settings: read-out: percent of control activity of cSrc
Method: as §1

CCCC(=O)Oc1ccc(C=CC(=O)Nc2nc(-c3ccc(Cl)cc3)cs2)cc1OC [Compound 8, Butyric acid 4-{2-[4-(4-chloro-phenyl)-thiazol-2-ylcarbamoyl]-vinyl}-2-methoxy-phenyl ester]
increase in colonic MPO activity (C57BL/6 mice): markedly attenuated
colon length (C57BL/6 mice; Day 6): intermediate length
Disease Activity Index (DAI) (C57BL/6 mice; Days 4-6): reduced the intensity of the IBD manifestations

Clc1ccc(-c2csc(NCc3ccccc3)n2)cc1 [Compound 73, Benzyl-[4-(4-chloro-phenyl)-thiazol-2-yl]-amine]
remaining activity at 50 µM (Abl): 100 ± 1%
remaining activity at 50 µM (CHK1): 124%
remaining activity at 50 µM (EFGR): 99 ± 9%
remaining activity at 50 µM (Fyn): 102%
remaining activity at 50 µM (IKKα): 152 ± 7%
remaining activity at 50 µM (P38 MAP kinase 2): 101%
remaining activity at 50 µM (PDK1): 98 ± 6%
remaining activity at 50 µM (PKBα): 102 ± 1%
remaining activity at 50 µM (Protein kinase C ε): 91 ± 2%
remaining activity at 50 µM (cSrc): 119 ± 6%
